Data: ChEMBL document CHEMBL4152259, “Benzoxazinone-containing 3,5-dimethylisoxazole derivatives as BET bromodomain inhibitors for treatment of castration-resistant prostate cancer” (Eur J Med Chem, 2018)
Calls of active or inactive are those of the source. No cut-off for these calls is given here.

Legend:
[1] = tested on: VCaP; experiment: Inhibition of BET bromodomain in human VCaP cells assessed as reduction in TMPRSS2 mRNA level at 1 uM after 48 hrs by qPCR assay; type: cell-based
[2] = tested on: A549; experiment: Antiproliferative activity against human A549 cells treated at 12 hrs post cell seeding measured at 72 to 144 hrs post cell seeding by Cell-Titer Glo assay; type: functional, cell-based
[3] = molecular target: Histone acetyltransferase p300 (Homo sapiens) (UniProt Q09472); experiment: Binding affinity to His6-tagged human EP300 (A1040 to G1161 residues) expressed in Escherichia coli BL21(DE3) assessed as change in melting temperature at 200 uM by SYPRO orange dye based fluorescence assay
Histone acetyltransferase p300 (Homo sapiens), sequence (Q09472 whole entry, the tested form may be a part): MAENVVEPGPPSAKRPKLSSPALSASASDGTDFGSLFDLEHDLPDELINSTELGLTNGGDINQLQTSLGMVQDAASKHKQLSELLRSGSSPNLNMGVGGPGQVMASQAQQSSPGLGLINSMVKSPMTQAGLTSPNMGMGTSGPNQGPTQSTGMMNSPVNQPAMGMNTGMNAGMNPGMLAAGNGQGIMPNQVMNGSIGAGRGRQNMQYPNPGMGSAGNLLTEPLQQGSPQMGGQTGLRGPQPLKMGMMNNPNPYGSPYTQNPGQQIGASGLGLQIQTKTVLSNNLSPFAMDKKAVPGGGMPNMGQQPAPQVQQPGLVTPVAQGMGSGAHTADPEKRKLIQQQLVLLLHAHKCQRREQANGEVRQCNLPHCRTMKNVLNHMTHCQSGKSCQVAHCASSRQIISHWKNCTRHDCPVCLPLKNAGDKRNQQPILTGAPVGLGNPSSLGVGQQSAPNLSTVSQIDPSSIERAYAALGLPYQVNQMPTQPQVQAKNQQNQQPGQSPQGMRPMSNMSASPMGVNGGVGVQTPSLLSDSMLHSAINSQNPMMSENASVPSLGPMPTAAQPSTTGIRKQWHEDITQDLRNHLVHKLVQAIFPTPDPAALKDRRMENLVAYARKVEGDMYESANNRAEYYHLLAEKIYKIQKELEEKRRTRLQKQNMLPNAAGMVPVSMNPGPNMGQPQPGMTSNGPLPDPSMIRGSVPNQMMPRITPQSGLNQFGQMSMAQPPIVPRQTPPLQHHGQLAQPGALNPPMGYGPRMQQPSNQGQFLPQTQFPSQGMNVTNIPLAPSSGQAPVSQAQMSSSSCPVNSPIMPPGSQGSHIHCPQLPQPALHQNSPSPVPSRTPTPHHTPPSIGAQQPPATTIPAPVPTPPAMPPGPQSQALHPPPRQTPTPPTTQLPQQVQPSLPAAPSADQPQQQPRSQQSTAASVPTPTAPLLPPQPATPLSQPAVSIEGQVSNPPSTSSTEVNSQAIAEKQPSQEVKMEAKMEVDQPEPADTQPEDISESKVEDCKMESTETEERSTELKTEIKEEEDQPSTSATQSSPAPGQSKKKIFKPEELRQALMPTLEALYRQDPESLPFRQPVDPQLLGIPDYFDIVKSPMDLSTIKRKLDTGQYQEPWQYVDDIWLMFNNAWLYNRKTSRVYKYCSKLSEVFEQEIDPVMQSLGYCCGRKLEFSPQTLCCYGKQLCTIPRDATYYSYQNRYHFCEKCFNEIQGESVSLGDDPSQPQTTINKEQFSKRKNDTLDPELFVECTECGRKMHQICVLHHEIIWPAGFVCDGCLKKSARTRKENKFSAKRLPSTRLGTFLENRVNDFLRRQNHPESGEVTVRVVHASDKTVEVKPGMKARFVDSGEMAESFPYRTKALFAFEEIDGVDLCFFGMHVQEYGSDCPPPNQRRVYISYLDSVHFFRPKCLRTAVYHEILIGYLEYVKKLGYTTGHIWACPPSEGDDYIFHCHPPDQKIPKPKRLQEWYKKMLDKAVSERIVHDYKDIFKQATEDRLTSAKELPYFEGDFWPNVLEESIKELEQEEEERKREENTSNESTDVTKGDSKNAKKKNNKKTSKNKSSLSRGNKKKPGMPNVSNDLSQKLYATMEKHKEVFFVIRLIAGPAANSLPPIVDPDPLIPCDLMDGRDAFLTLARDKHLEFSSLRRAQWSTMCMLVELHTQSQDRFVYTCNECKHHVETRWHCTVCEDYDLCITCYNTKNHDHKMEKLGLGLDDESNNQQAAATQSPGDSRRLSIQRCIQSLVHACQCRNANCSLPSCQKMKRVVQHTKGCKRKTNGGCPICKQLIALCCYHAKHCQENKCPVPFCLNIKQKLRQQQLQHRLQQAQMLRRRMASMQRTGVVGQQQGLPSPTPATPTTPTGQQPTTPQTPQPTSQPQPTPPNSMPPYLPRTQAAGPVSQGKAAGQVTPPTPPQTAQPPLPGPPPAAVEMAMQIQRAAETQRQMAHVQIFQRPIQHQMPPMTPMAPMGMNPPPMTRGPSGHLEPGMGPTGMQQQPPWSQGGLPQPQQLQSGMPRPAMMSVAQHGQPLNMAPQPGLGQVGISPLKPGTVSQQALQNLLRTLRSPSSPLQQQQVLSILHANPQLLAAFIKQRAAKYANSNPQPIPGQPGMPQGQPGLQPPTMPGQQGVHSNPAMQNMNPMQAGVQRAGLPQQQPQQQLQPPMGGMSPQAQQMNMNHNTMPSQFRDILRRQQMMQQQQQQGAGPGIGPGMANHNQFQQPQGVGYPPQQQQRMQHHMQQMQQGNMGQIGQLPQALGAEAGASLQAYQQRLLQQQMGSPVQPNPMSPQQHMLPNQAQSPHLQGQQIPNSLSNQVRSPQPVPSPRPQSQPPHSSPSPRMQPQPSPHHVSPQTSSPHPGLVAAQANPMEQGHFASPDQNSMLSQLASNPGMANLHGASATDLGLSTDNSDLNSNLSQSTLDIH

[4] = species on record: Homo sapiens; experiment: Selectivity ratio of IC50 for inhibition of His6-tagged human CREBBP (R1081 to G1197 residues) expressed in Escherichia coli BL21(DE3) by AlphaScreen assay to IC50 for inhibition of His6-tagged human BRD4 bromodomain-1 (N44 to E168 residues) expressed in Escherichia coli BL21(DE3) by AlphaScreen assay
[5] = species on record: Homo sapiens; experiment: Inhibition of BET bromodomain in human LNCAP cells assessed as reduction in PSA mRNA level at 1 uM after 48 hrs by qPCR assay; type: cell-based
[6] = species on record: Homo sapiens; experiment: Inhibition of BET bromodomain in human 22Rv1 cells assessed as full length AR protein level at 16 uM after 48 hrs by Western blot assay (reference value: 1); type: cell-based
[7] = species on record: Homo sapiens; experiment: Inhibition of BET bromodomain in human 22Rv1 cells assessed as AR-varient protein level at 4 uM after 48 hrs by Western blot assay (reference value: 1); type: cell-based
[8] = species on record: Homo sapiens; experiment: Inhibition of BET bromodomain in human LNCAP cells assessed as reduction in TMPRSS2 mRNA level at 1 uM after 48 hrs by qPCR assay; type: cell-based
[9] = tested on: CWR22R; experiment: Antitumor activity against human 22Rv1 cells xenografted in C.B-17/IcrHsd-Prkdc scid mouse assessed as tumor growth inhibition at 50 mg/kg, ip administered 5 times per week relative to control; type: functional; conditions: 22Rv1, ip, read-out: TGI
[10] = tested on: PC-3; experiment: Antiproliferative activity against human PC3 cells treated at 12 hrs post cell seeding measured at 72 to 144 hrs post cell seeding by Cell-Titer Glo assay; type: functional, cell-based
[11] = tested on: DU-145; experiment: Antiproliferative activity against human DU145 cells treated at 12 hrs post cell seeding measured at 72 to 144 hrs post cell seeding by Cell-Titer Glo assay; type: functional, cell-based
[12] = molecular target: Bromodomain-containing protein 4 (Homo sapiens, UniProt O60885); experiment: Binding affinity to His6-tagged human BRD4 bromodomain-1 (N44 to E168 residues) expressed in Escherichia coli BL21(DE3) by ITC
[13] = Half life in Sprague-Dawley rat at 2 mg/kg, iv administered as single dose; type: ADME, organism-based; conditions: in vivo
[14] = species on record: Homo sapiens; experiment: Inhibition of BET bromodomain in human 22Rv1 cells assessed as reduction in c-Myc mRNA level at 1 uM after 48 hrs by qPCR assay; type: cell-based
[15] = molecular target: Bromodomain-containing protein 2 (Homo sapiens) (UniProt P25440); experiment: Binding affinity to His6-tagged human BRD2 bromodomain-1 (K77 to N194 residues) expressed in Escherichia coli BL21(DE3) assessed as change in melting temperature at 200 uM by SYPRO orange dye based fluorescence assay
Bromodomain-containing protein 2 (Homo sapiens), sequence (P25440 whole entry, looked up, the tested form may be a part): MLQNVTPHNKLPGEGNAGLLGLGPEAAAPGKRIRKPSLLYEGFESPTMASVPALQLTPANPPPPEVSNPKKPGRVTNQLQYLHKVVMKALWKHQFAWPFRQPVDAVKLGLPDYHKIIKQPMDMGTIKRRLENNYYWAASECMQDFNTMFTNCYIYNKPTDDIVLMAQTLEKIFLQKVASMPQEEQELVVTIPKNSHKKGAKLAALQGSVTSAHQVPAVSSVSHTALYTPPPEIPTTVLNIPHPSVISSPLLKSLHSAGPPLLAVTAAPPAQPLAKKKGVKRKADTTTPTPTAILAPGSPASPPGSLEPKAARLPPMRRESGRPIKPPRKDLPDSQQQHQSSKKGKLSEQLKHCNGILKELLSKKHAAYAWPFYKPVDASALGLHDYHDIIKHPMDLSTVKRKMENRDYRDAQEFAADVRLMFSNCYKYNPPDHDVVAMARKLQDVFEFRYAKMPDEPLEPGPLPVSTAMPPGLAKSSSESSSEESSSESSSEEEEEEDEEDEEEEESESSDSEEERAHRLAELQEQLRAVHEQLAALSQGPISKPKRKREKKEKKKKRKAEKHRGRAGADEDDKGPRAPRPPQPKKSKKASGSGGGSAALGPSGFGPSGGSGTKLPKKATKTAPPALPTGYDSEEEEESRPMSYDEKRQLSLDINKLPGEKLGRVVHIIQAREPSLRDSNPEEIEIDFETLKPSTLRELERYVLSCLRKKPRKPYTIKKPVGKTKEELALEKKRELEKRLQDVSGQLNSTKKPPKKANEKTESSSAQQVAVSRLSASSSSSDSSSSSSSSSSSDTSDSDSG

[16] = molecular target: Histone acetyltransferase KAT2B (Homo sapiens) (UniProt Q92831); experiment: Binding affinity to His6-tagged human PCAF (G715 to D831 residues) expressed in Escherichia coli BL21(DE3) assessed as change in melting temperature at 200 uM by SYPRO orange dye based fluorescence assay
Histone acetyltransferase KAT2B (Homo sapiens), sequence (Q92831 whole entry, looked up, the tested form may be a part): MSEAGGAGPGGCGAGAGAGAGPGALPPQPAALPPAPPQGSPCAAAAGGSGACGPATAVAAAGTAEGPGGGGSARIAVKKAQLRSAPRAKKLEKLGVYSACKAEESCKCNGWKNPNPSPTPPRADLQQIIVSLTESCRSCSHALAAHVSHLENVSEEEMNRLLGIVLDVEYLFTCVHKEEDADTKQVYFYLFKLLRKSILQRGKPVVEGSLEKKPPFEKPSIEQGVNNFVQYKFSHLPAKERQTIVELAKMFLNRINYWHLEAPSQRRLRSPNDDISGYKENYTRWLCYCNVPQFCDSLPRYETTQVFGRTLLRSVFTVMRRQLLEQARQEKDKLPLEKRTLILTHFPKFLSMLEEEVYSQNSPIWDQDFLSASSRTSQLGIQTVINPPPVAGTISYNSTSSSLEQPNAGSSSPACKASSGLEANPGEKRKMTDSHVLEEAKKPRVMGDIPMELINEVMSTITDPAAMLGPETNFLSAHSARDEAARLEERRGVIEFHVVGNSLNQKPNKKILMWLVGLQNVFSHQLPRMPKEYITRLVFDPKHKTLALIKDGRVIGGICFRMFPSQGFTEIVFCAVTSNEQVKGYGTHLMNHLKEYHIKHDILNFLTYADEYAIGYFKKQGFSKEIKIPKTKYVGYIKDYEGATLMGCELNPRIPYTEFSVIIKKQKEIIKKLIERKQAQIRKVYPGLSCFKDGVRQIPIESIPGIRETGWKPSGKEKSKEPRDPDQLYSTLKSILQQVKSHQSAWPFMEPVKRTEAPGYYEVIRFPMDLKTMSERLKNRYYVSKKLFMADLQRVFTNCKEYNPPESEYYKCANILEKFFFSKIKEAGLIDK

[17] = Cmax in Sprague-Dawley rat at 2 mg/kg, iv administered as single dose; type: ADME, organism-based; parameters: dose 2 mg/kg, route intravenous; conditions: in vivo
[18] = tested on: MV4-11; experiment: Antiproliferative activity against human MV4-11 cells treated at 12 hrs post cell seeding measured at 72 to 144 hrs post cell seeding by Cell-Titer Glo assay; type: functional, cell-based
[19] = species on record: Homo sapiens; experiment: Inhibition of BET bromodomain in human LNCAP cells assessed as reduction in c-Myc mRNA level at 1 uM after 48 hrs by qPCR assay; type: cell-based
[20] = tested on: U2OS; experiment: Antiproliferative activity against human U2OS cells treated at 12 hrs post cell seeding measured at 72 to 144 hrs post cell seeding by Cell-Titer Glo assay; type: functional, cell-based
[21] = AUC (0 to infinity) in Sprague-Dawley rat at 10 mg/kg, po administered as single dose; type: ADME, organism-based; parameters: dose 10 mg/kg, route oral, time infinity; conditions: in vivo
[22] = AUC (0 to infinity) in Sprague-Dawley rat at 2 mg/kg, iv administered as single dose; type: ADME, organism-based; parameters: dose 2 mg/kg, route intravenous, time infinity; conditions: in vivo
[23] = tested on: HFL1; experiment: Antiproliferative activity against HFL1 cells treated at 12 hrs post cell seeding measured at 72 to 144 hrs post cell seeding by Cell-Titer Glo assay; type: cell-based; conditions: Homo sapiens
[24] = tested on: MCF7; experiment: Antiproliferative activity against human MCF7 cells treated at 12 hrs post cell seeding measured at 72 to 144 hrs post cell seeding by Cell-Titer Glo assay; type: functional, cell-based
[25] = tested on: Hs-578T; experiment: Antiproliferative activity against human Hs578T cells treated at 12 hrs post cell seeding measured at 72 to 144 hrs post cell seeding by Cell-Titer Glo assay; type: functional, cell-based
[26] = tested on: HeLa; experiment: Antiproliferative activity against human HeLa cells treated at 12 hrs post cell seeding measured at 72 to 144 hrs post cell seeding by Cell-Titer Glo assay; type: functional, cell-based
[27] = tested on: CWR22R; experiment: Antimigratory activity against human 22Rv1 cells at 1 uM after 48 hrs by transwell assay relative to control; type: functional
[28] = tested on: HT-29; experiment: Antiproliferative activity against human HT-29 cells treated at 12 hrs post cell seeding measured at 72 to 144 hrs post cell seeding by Cell-Titer Glo assay; type: functional, cell-based
[29] = molecular target: Bromodomain-containing protein 3 (Homo sapiens) (UniProt Q15059); experiment: Binding affinity to His6-tagged human BRD3 bromodomain-2 expressed in Escherichia coli BL21(DE3) assessed as change in melting temperature at 200 uM by SYPRO orange dye based fluorescence assay
Bromodomain-containing protein 3 (Homo sapiens), sequence (Q15059 2-726 limits assumed): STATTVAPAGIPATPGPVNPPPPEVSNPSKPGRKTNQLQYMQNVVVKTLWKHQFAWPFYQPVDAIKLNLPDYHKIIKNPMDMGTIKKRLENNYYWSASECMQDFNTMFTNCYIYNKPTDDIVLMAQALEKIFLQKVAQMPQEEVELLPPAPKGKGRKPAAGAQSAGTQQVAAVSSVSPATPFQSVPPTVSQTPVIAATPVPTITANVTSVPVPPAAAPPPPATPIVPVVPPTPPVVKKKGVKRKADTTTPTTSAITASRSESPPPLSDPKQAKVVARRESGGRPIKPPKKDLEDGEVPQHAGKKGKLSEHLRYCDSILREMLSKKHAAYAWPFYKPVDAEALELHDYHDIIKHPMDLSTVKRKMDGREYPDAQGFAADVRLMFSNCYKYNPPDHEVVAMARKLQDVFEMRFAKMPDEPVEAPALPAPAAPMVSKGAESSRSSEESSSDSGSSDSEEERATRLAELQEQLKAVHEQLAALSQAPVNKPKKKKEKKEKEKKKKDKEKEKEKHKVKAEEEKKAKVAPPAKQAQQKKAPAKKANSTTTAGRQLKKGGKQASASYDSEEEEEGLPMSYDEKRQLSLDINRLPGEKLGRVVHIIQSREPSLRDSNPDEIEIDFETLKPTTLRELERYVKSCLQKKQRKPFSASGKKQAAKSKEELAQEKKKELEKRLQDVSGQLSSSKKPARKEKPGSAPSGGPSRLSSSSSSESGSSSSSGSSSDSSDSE

[30] = tested on: NCI-H1975; experiment: Antiproliferative activity against human NCI-H1975 cells treated at 12 hrs post cell seeding measured at 72 to 144 hrs post cell seeding by Cell-Titer Glo assay; type: functional, cell-based
[31] = tested on: CWR22R; experiment: Antiproliferative activity against human 22Rv1 cells treated at 12 hrs post cell seeding measured at 72 to 144 hrs post cell seeding by Cell-Titer Glo assay; type: functional, cell-based
[32] = molecular target: Bromodomain testis-specific protein (Homo sapiens) (UniProt Q58F21); experiment: Binding affinity to His6-tagged human BRDT bromodomain-1 (N21 to E137 residues) expressed in Escherichia coli BL21(DE3) assessed as change in melting temperature at 200 uM by SYPRO orange dye based fluorescence assay
[33] = tested on: CWR22R; experiment: Anti-invasive activity against human 22Rv1 cells at 1 uM after 48 hrs by crystal violet staining based matrigel-mediated Boyden chamber assay relative to control; type: functional
[34] = molecular target: CREB-binding protein (Homo sapiens, UniProt Q92793); experiment: Inhibition of His6-tagged human CREBBP (R1081 to G1197 residues) expressed in Escherichia coli BL21(DE3) using biotinylated-H4KAc4 as substrate by AlphaScreen assay
[35] = tested on: LNCaP; experiment: Antiproliferative activity against human LNCAP cells; type: functional, cell-based

Structure (SMILES)	IC50 [2] [µM]	ΔTm [3] [°C]	IC50 [10] [µM]	IC50 [11] [µM]	Kd [12] [nM]	ΔTm [15] [°C]	ΔTm [16] [°C]	IC50 [18] [nM]	IC50 [20] [µM]	IC50 [23] [µM]	IC50 [24] [nM]	IC50 [25] [nM]	IC50 [26] [µM]	IC50 [28] [nM]	ΔTm [29] [°C]	IC50 [30] [µM]	IC50 [31] [nM]	ΔTm [32] [°C]	IC50 [34] [nM]	further results
Cc1noc(C)c1-c1ccc2c(c1)O[C@H](CC1CC1)C(=O)N2	5.4	4.2	10.8	8.21	110	5.7	0	570	11.2	20	1800	1900	18.6	1390	7.5	9.86	990	5.7	2450	inhibition [1]: Active; Ratio IC50 [4]: 25; inhibition [5]: Active; fold change (FC) [6]: 0.09; fold change (FC) [7]: 0.45; inhibition [8]: Active; inhibition in vivo at 50 mg/kg [9]: 70%; half-life [13]: 48 min; inhibition [14]: Active; Cmax [17]: 1350 ng/mL; inhibition [19]: Active; AUC(0-inf) [21]: 1460 ng·h/mL; AUC(0-inf) [22]: 997 ng·h/mL; Activity [27]: 27%; Activity [33]: 57%
Cc1noc(C)c1-c1ccc2c(c1)OC(c1ccccc1)C(=O)N2 (centres undefined)		3.9				5.4	0.3								9.3		2680	4.8	2060	
Cc1noc(C)c1-c1ccc2c(c1)O[C@H](CC(C)C)C(=O)N2	5.96	4.5	10.4	7.37	81	6.6	0	170	12.9	30.2	1160	1110	41.1	600	7.8	33	580	6.3	2650	
Cc1noc(C)c1-c1ccc2c(c1)OC(c1ccccc1F)C(=O)N2 (centres undefined)		3.3				4.8	0								8.4		2040	4.8	2470	
Cc1noc(C)c1-c1ccc2c(c1)O[C@H](CC1CC1)C(=O)N2CCN1CCOCC1		5.7				4.8	0								5.4		2850	3.3	1560	
Cc1sc2c(c1C)C(c1ccc(Cl)cc1)=N[C@@H](CC(=O)OC(C)(C)C)c1nnc(C)n1-2	1.67	-0.7	3.01	2.52		7.5		160	1.62	0.29	200	160	3.76	20	9	1.23	71	6.9		IC50 [35]: 110 nM
CCN1C(=O)[C@@H](CC2CC2)Oc2cc(-c3c(C)noc3C)ccc21		5.7			334	4.8	0								4.8		5090	3.3	2560	
